# Molecular target: T1, Nano luciferase (NLuc) (Oplophorus gracilirostris, UniProt Q9GV45, A31E/A60N/A81I/F95D/I117V/K70R/L54V/L99Q/M102K/N193R/P142E/Q151K/Q38R/Q45L/V71I/Y165I)
# T1 construct: His tag (inferred from IMAC purification); made in house; host or cells: E. coli
# Experiment: Thermal shift profiles (Thermofluor assay), NLuc
# Type: binding
# Design: unit of the concentration uncertain
# Details: compound 100 (unit uncertain); for Thermofluor NLuc, ATP: ATP (2 mM)
# Procedure: Thermal stabilization of proteins in the presence of the ligands were determined using Thermofluor technique. MicroAmp optical 384-well plates (Applied Biosystems by Life Technologies), ViiA 7 real-time PCR instrument (Applied Biosystems by Life Technologies) and SYPRO Orange (Life Technologies) were used to test the samples. […]. Proteins were added to the 384-well plate first followed by the compounds. Samples were incubated for 10 mins at room temperature and protected from light. SYPRO Orange dye was diluted to 50x from 5000x stock in a PBS buffer, and 4 µL dye was added to the each well using a multi-channel pipette. The plate was sealed with a MicroAmp optical adhesive film, centrifuged at 1500 RPM for 2 min, and then loaded onto the ViiA 7 real–time PCR instrument for fluorescence intensity measurements upon heating the sample from 25 to 95 °C at 1 °C/min increments. Data was exported to excel, fluorescence intensity data and its first derivative were normalized and plotted using GraphPad Prism to determine Tm. See Supplementary Table 3 for additional details.
# Supplementary Figure 6. Comparison of SDR and Thermofluor analysis of […]
# Temperature °C Temperature °C […]
# Supplementary Table 3. Protocol for Thermofluor assay
# Supplementary Table 3: Protocol for Therm ofluor assay
# Sequence Param eter Value Description […]
# 3 Incubation 10 m ins Room tem perature, protected from light
# 4 Dye 10X Sypro Orange dye in PBS added to the sam ple
# 5 Centrifugation 2 m in Centrifuge for 2 m in at 1500 RPM at RT
# 6 Read ViiA7 Read the therm al unfolding of the protein with ViiA7 real-tim e PCR system
# 4 Prepare 50X dye in PBS: 1 μL Sypro Orange 5000X (Life Technologies), 99 μL ddH2O. Add 4 μL to each well Read the m elting tem perature from 25 to 95 °C using ViiA 7 real tim e PCR instrum ent by following the below instructions Perform therm al denaturation in 384-well assay plate
# (i) Place the assay plate into the Applied Biosystem s ViiA7 real-tim e PCR instrum ent and open the ViiA7 RUO software.
# Under Experim ental Properties, select the following param eters: Set up: […] (20 μl), Experim ent type: MELT CURVE, Reagents used to detect target sequence: OTHER, Ram p Speed: […]
# (ii) Select the Define tab on the left, then select the following param eters: Target nam e: TARGET 1, Reporter: ROX, 6 Quencher: NONE, Passive Reference: NONE
# (iii) Select the Assign tab on the left, then perform the following actions: Highlight all 384 wells in the assay plate and check the box next to ‘Target 1’ on the top left of the plate layout. Note: check the ‘Sam ple’ box on the lower left.
# (iv) Select the Run Method tab on the left, then m ake the following changes to the default Melt Curve profile: Delete Step 2 of the default cycle, change run m ethod to “Step and Hold” with a 1:00 tim e, set the following tem peratures: an initial 2:00 hold at 25 °C (4 °C), ram ping up in increm ents of 1 ° C to a final tem perature of 95 °C (with a 2:00 hold), click on all three cam eras to activate fluorescence detection throughout the experim ent, and Select total volum e per well of 20 μl
# (v) Click on the RUN tab to the left to initiate therm al denaturation.
# T1 sequence (Q9GV45 other isoform, or with tags, fused parts or gaps with the stated changes): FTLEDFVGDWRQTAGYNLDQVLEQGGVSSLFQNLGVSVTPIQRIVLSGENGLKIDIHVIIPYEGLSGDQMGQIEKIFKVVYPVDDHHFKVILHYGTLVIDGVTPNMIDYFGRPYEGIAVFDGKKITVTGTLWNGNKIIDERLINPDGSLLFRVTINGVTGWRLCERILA
smiles,measurement,setting,value
CC(CNC(=O)C1CCN(C(=O)c2ncn3c2COC(c2ccccc2)C3)CC1)c1ccccc1 (stereo not drawn) [NCGC 00449795],"Thermofluor NLuc, No ATP",20.000 °C,1
same,"Thermofluor NLuc, ATP",20.000 °C,0.97
same,"Thermofluor NLuc, No ATP",20.993 °C,0.711
same,"Thermofluor NLuc, ATP",20.993 °C,0.992
same,"Thermofluor NLuc, No ATP",21.987 °C,0.647
same,"Thermofluor NLuc, ATP",21.987 °C,1
same,"Thermofluor NLuc, No ATP",22.980 °C,0.606
same,"Thermofluor NLuc, ATP",22.980 °C,0.993
same,"Thermofluor NLuc, No ATP",23.974 °C,0.589
same,"Thermofluor NLuc, ATP",23.974 °C,0.974
same,"Thermofluor NLuc, No ATP",24.967 °C,0.561
same,"Thermofluor NLuc, ATP",24.967 °C,0.95
same,"Thermofluor NLuc, No ATP",25.960 °C,0.532
same,"Thermofluor NLuc, ATP",25.960 °C,0.929
same,"Thermofluor NLuc, No ATP",26.954 °C,0.532
same,"Thermofluor NLuc, ATP",26.954 °C,0.916
same,"Thermofluor NLuc, No ATP",27.947 °C,0.499
same,"Thermofluor NLuc, ATP",27.947 °C,0.908
same,"Thermofluor NLuc, No ATP",28.940 °C,0.462
same,"Thermofluor NLuc, ATP",28.940 °C,0.904
same,"Thermofluor NLuc, No ATP",29.934 °C,0.421
same,"Thermofluor NLuc, ATP",29.934 °C,0.9
same,"Thermofluor NLuc, No ATP",30.927 °C,0.383
same,"Thermofluor NLuc, ATP",30.927 °C,0.894
same,"Thermofluor NLuc, No ATP",31.921 °C,0.366
same,"Thermofluor NLuc, ATP",31.921 °C,0.886
same,"Thermofluor NLuc, No ATP",32.914 °C,0.333
same,"Thermofluor NLuc, ATP",32.914 °C,0.878
same,"Thermofluor NLuc, No ATP",33.907 °C,0.327
same,"Thermofluor NLuc, ATP",33.907 °C,0.87
same,"Thermofluor NLuc, No ATP",34.901 °C,0.309
same,"Thermofluor NLuc, ATP",34.901 °C,0.863
same,"Thermofluor NLuc, No ATP",35.894 °C,0.276
same,"Thermofluor NLuc, ATP",35.894 °C,0.856
same,"Thermofluor NLuc, No ATP",36.887 °C,0.231
same,"Thermofluor NLuc, ATP",36.887 °C,0.849
same,"Thermofluor NLuc, No ATP",37.881 °C,0.229
same,"Thermofluor NLuc, ATP",37.881 °C,0.841
same,"Thermofluor NLuc, No ATP",38.874 °C,0.176
same,"Thermofluor NLuc, ATP",38.874 °C,0.833
same,"Thermofluor NLuc, No ATP",39.868 °C,0.201
same,"Thermofluor NLuc, ATP",39.868 °C,0.827
same,"Thermofluor NLuc, No ATP",40.861 °C,0.184
same,"Thermofluor NLuc, ATP",40.861 °C,0.824
same,"Thermofluor NLuc, No ATP",41.854 °C,0.161
same,"Thermofluor NLuc, ATP",41.854 °C,0.821
same,"Thermofluor NLuc, No ATP",42.848 °C,0.108
same,"Thermofluor NLuc, ATP",42.848 °C,0.817
same,"Thermofluor NLuc, No ATP",43.841 °C,0.096
same,"Thermofluor NLuc, ATP",43.841 °C,0.812
same,"Thermofluor NLuc, No ATP",44.835 °C,0.098
same,"Thermofluor NLuc, ATP",44.835 °C,0.805
same,"Thermofluor NLuc, No ATP",45.828 °C,0.096
same,"Thermofluor NLuc, ATP",45.828 °C,0.794
same,"Thermofluor NLuc, No ATP",46.821 °C,0.034
same,"Thermofluor NLuc, ATP",46.821 °C,0.779
same,"Thermofluor NLuc, No ATP",47.815 °C,0.027
same,"Thermofluor NLuc, ATP",47.815 °C,0.76
same,"Thermofluor NLuc, No ATP",48.808 °C,0.048
same,"Thermofluor NLuc, ATP",48.808 °C,0.734
same,"Thermofluor NLuc, No ATP",50.795 °C,0.006
same,"Thermofluor NLuc, ATP",50.795 °C,0.656
same,"Thermofluor NLuc, No ATP",51.788 °C,0.009
same,"Thermofluor NLuc, ATP",51.788 °C,0.601
same,"Thermofluor NLuc, No ATP",52.782 °C,0
same,"Thermofluor NLuc, ATP",52.782 °C,0.533
same,"Thermofluor NLuc, No ATP",53.775 °C,0.03
same,"Thermofluor NLuc, ATP",53.775 °C,0.451
same,"Thermofluor NLuc, No ATP",54.768 °C,0.027
same,"Thermofluor NLuc, ATP",54.768 °C,0.357
same,"Thermofluor NLuc, No ATP",55.762 °C,0.051
same,"Thermofluor NLuc, ATP",55.762 °C,0.257
same,"Thermofluor NLuc, No ATP",56.755 °C,0.14
same,"Thermofluor NLuc, ATP",56.755 °C,0.161
same,"Thermofluor NLuc, No ATP",57.748 °C,0.19
same,"Thermofluor NLuc, ATP",57.748 °C,0.079
same,"Thermofluor NLuc, No ATP",58.742 °C,0.3
same,"Thermofluor NLuc, ATP",58.742 °C,0.022
same,"Thermofluor NLuc, No ATP",59.735 °C,0.413
same,"Thermofluor NLuc, ATP",59.735 °C,0
same,"Thermofluor NLuc, No ATP",60.729 °C,0.505
same,"Thermofluor NLuc, ATP",60.729 °C,0.015
same,"Thermofluor NLuc, No ATP",61.722 °C,0.61
same,"Thermofluor NLuc, ATP",61.722 °C,0.065
same,"Thermofluor NLuc, No ATP",62.715 °C,0.667
same,"Thermofluor NLuc, ATP",62.715 °C,0.143
same,"Thermofluor NLuc, No ATP",63.709 °C,0.726
same,"Thermofluor NLuc, ATP",63.709 °C,0.238
same,"Thermofluor NLuc, No ATP",65.695 °C,0.759
same,"Thermofluor NLuc, ATP",65.695 °C,0.437
same,"Thermofluor NLuc, No ATP",66.689 °C,0.785
same,"Thermofluor NLuc, ATP",66.689 °C,0.525
same,"Thermofluor NLuc, No ATP",68.676 °C,0.749
same,"Thermofluor NLuc, ATP",68.676 °C,0.658
same,"Thermofluor NLuc, No ATP",69.669 °C,0.746
same,"Thermofluor NLuc, ATP",69.669 °C,0.703
same,"Thermofluor NLuc, No ATP",70.662 °C,0.73
same,"Thermofluor NLuc, ATP",70.662 °C,0.736
same,"Thermofluor NLuc, No ATP",71.656 °C,0.72
same,"Thermofluor NLuc, ATP",71.656 °C,0.76
same,"Thermofluor NLuc, No ATP",72.649 °C,0.696
same,"Thermofluor NLuc, ATP",72.649 °C,0.778
same,"Thermofluor NLuc, No ATP",73.643 °C,0.686
same,"Thermofluor NLuc, ATP",73.643 °C,0.793
same,"Thermofluor NLuc, No ATP",74.636 °C,0.672
same,"Thermofluor NLuc, ATP",74.636 °C,0.807
same,"Thermofluor NLuc, No ATP",75.629 °C,0.623
same,"Thermofluor NLuc, ATP",75.629 °C,0.82
